Holding throughout (conditions): stereoisomer not certain
The nature of data set [1]: RP, Phenomenex Kinetex EVO C18, 100 × 2.1 mm, 2.6 µm, 40 °C, 0.4 mL/min, estimated dead time 0.55 min; A: water + 0.2% formic acid; B: acetonitrile + 0.2% formic acid; gradient (min/%B) 0/5 0.5/5 7/95 8/95 8.5/5 12/5.
The nature of data set [2]: RP, Agilent ZORBAX RRHD Eclipse Plus C18, 50 × 2.1 mm, 1.8 µm, 30 °C, 0.4 mL/min, estimated dead time 0.28 min; A: water + 0.1% formic acid, pH 3; B: acetonitrile + 0.1% formic acid, pH 3; gradient (min/%B) 0/1 5/10 8/25 9.1/99 10/99 12/1.
The nature of data set [3]: RP, Agilent ZORBAX RRHD Eclipse Plus C18, 50 × 2.1 mm, 1.8 µm, 30 °C, 0.4 mL/min, estimated dead time 0.28 min; A: water + 0.1% formic acid, pH 3; B: acetonitrile + 0.1% formic acid, pH 3; gradient (min/%B) 0/1 5/10 8/25 9.1/99 10/99 12/99.
Data set [4] can be described thus: RP, Waters ACQUITY UPLC HSS T3, 100 × 2.1 mm, 1.8 µm, 30 °C, 0.4 mL/min, estimated dead time 0.55 min; A: water + 0.1% formic acid, pH 3; B: acetonitrile + 0.1% formic acid, pH 3; gradient (min/%B) 0/0 2/0 15/100 22/100 22.1/0 26/0.
A short description of data set [5]: RP, Phenomenex Synergi Hydro-RP, 250 × 2 mm, 4 µm, 25 °C, 0.2 mL/min, estimated dead time 2.5 min; A: water + 0.1% formic acid, pH 3; B: acetonitrile + 0.1% formic acid, pH 3; gradient (min/%B) 0/0.5 7/0.5 12/12.5 25/16.3 47/35 48/65 50/65 50.1/0.5.
Data set [6] in a line: RP, 150 × 2.1 mm, 2.6 µm, 40 °C, 0.35 mL/min, estimated dead time 0.94 min; A: water + 0.1% formic acid, pH 3; B: acetonitrile + 0.1% formic acid, pH 3; gradient (min/%B) 0/0 1/0 12.5/100 14/100 14.2/0 15/0.
The nature of data set [7]: RP, 150 × 2.1 mm, 2.6 µm, 40 °C, 0.35 mL/min, estimated dead time 0.94 min; A: water + 0.1% formic acid, pH 3; B: acetonitrile + 0.1% formic acid, pH 3; gradient (min/%B) 0/0 1/5 7/45 8.5/80 10.5/80 11/5 12/5.
Data set [8] is described as follows: RP, Waters ACQUITY UPLC HSS T3, 100 × 2.1 mm, 50 °C; A: water + 0.1% formic acid, pH 3; B: 30% methanol + 70% acetonitrile + 0.1% formic acid, pH 3; gradient (min/%B) 0/5 1/8 2/15 3/40 4/70 4.5/100 5/100 6.4/100 6.6/5 6.8/5 7/5.
The nature of data set [9]: RP, Waters Atlantis T3, 100 × 2.1 mm, 3 µm, 40 °C, 0.3 mL/min, estimated dead time 0.73 min; A: water + 0.1% trifluoroacetic acid, pH 2; B: acetonitrile + 0.1% trifluoroacetic acid, pH 2; gradient (min/%B) 0/10 1/10 6/40 7/50 8/50 14/70 16/80 20/10 25/10.
A short description of data set [10]: RP, Waters ACQUITY UPLC BEH C18, 100 × 2.1 mm, 1.7 µm, 65 °C, 0.4 mL/min, estimated dead time 0.55 min; A: water + 0.1% formic acid, pH 3; B: 80% acetonitrile + 20% acetone + 0.1% formic acid, pH 3; gradient (min/%B) 0/0 5/100 5.5/0 6/0.
Data set [11] is described as follows: RP, Agilent InfinityLab Poroshell 120 EC-C18, 100 × 3 mm, 2.7 µm, 25 °C, 0.4 mL/min, estimated dead time 1.1 min; A: water + 0.1% formic acid, pH 3; B: acetonitrile + 0.1% formic acid, pH 3; gradient (min/%B) 0/5 10/25 20/40 24/90 25/90 26/5 30/5.

SMILES strings stand for the structures.

Consider `O=Cc1ccc(O)c(O)c1` [3,4-Dihydroxybenzaldehyde], for which the LC retention time in [1] is 2.18 min; in [2], 4.12 min; in data set [3] it was 3.73 min.
As to `O=C(O)CCc1cccc(O)c1` [3-(3-hydroxyphenyl)propanoic acid], the LC retention time in data set [1] was 4.51 min; in data set [4], 9.17 min; in data set [2], 7.32 min; in data set [3] it was 7.28 min; in data set [5] it was 29.5 min.
For `O=C(O)CNC(=O)c1ccc(O)cc1` [4-Hydroxyhippuric acid], the LC retention time in data set [6] was 3.82 min; in data set [7], 3.56 min; in [1], 1.55 min; in data set [8], 2.19 min; in data set [2] it was 3.19 min; in data set [3], 1.63 min.
`CC(C)=CCc1c(O)cc(O)c2c1OC(c1ccc(O)cc1)CC2=O` (configuration not stated) [8-prenylnaringenin]: the LC retention time in [9] is 12.7 min.
`O=C(O)C=Cc1ccc(OC2OC(C(=O)O)C(O)C(O)C2O)c(O)c1` (configuration not stated) [Caffeic acid-4-glucuronide]: the LC retention time in [1] is 2.45 min; in data set [2], 3.98 min; in [3], 1.78 min.
With `CC(C)c1cc2c(c(O)c1O)C1(C(=O)O)CCCC(C)(C)C1CC2` (configuration not stated) [Carnosic acid], the LC retention time in [9] is 15.2 min.
`CC(C)c1cc2c(c(O)c1O)C13CCCC(C)(C)C1CC2OC3=O` (configuration not stated) [Carnosol]: the LC retention time in data set [8] was 4.52 min; in [10], 4.02 min; in [9] it was 16.3 min.
On to `COc1ccc(C2CC(=O)c3c(O)cc(OC4OC(COC5OC(C)C(O)C(O)C5O)C(O)C(O)C4O)cc3O2)cc1` (configuration not stated) [Didymin], for which the LC retention time in [9] was 9.08 min.
On to `COc1ccc(CCC(=O)O)cc1OC1OC(C(=O)O)C(O)C(O)C1O` (configuration not stated) [Dihydro isoferulic acid-3-O-glucuronide], for which the LC retention time is 4.22 min in [1], 6.49 min in data set [2] and 6.53 min in data set [3].
The corresponding values for `O=C(O)CCc1ccc(O)c(OC2OC(C(=O)O)C(O)C(O)C2O)c1` (configuration not stated) [Dihydrocaffeic acid-3-O-glucuronide] are 3.22 min, 5.11 min and 3.94 min.
The corresponding values for `O=C(O)CCc1ccc(O)c(OS(=O)(=O)O)c1` [Dihydrocaffeic acid-3-O-sulfate] are 4.04 min, 5.08 min and 2.83 min.
The corresponding values for `COc1cc(CCC(=O)O)ccc1OS(=O)(=O)O` [Dihydroferulic acid-4-O-Sulfate] are 4.36 min, 5.86 min and 4.05 min.
Consider `COc1cc(C=CC(=O)O)ccc1OS(=O)(=O)O` [Ferulic acid 4-O-sulfate], for which the values for the LC retention time in data set [1], in data set [2] and in [3] were 4.59 min, 6.22 min and 4.67 min, respectively.
The corresponding values for `COc1cc(C=CC(=O)O)ccc1OC1OC(C(=O)O)C(O)C(O)C1O` (configuration not stated) [Ferulic acid-4-O-glucuronide] are 3.62 min, 4.81 min and 3.24 min.
Consider `COc1ccc(C2CC(=O)c3c(O)cc(O)cc3O2)cc1OC1OC(C(=O)O)C(O)C(O)C1O` (configuration not stated) [Hesperetin 3'-O-glucuronide], for which the LC retention time in data set [1] was 5.32 min; in [11], 12.2 min.
For the compound `COc1ccc(C=CC(=O)O)cc1OS(=O)(=O)O` [Isoferulic acid 3-O-sulfate], the LC retention time in data set [1] was 4.79 min; in [2], 6.76 min; in [3] it was 5.94 min.
In the case of `COc1ccc(C=CC(=O)O)cc1OC1OC(C(=O)O)C(O)C(O)C1O` (configuration not stated) [Isoferulic acid-3-O-glucuronide], the LC retention time is 4.25 min in data set [1], 6.36 min in data set [2], 6.38 min in data set [3] and 34.4 min in data set [5].
As to `COc1ccc(C(=O)O)cc1OS(=O)(=O)O` [Isovanillic acid-3-O-sulfate], the LC retention time in data set [1] is 3.68 min; in [2], 3.98 min; in data set [3], 3.47 min.
Turning to `COc1cc(O)c(CC=C(C)C)c2c1C(=O)CC(c1ccc(O)cc1)O2` (configuration not stated) [Isoxanthumol], the LC retention time in [9] is 11.1 min.
Take `CC1OC(OCC2OC(Oc3cc(O)c4c(c3)OC(c3ccc(O)cc3)CC4=O)C(O)C(O)C2O)C(O)C(O)C1O` (configuration not stated) [Narirutin]: the LC retention time in [9] was 7.65 min.
On to `Oc1cc(O)c2c(c1)OC(c1ccc(O)c(O)c1)C(O)C2c1c(O)cc(O)c2c1OC(c1ccc(O)c(O)c1)C(O)C2c1c(O)cc(O)c2c1OC(c1ccc(O)c(O)c1)C(O)C2` (configuration not stated) [Procyanidin C1], for which the LC retention time in data set [9] is 6.03 min.
As for `O=C(O)c1ccc(O)c(OC2OC(C(=O)O)C(O)C(O)C2O)c1` (configuration not stated) [Protocatechuic acid-3-O-glucuronide], the results for the LC retention time in data set [1], in [2] and in [3] were 1.44 min, 2.8 min and 1.12 min, respectively.
For `O=C(O)c1ccc(OS(=O)(=O)O)c(O)c1` [Protocatechuic acid-4-O-sulfate], the values for the LC retention time in [1], in data set [2] and in [3] were 2.38 min, 2.44 min and 0.954 min, respectively.
For the compound `O=C(O)C1OC(Oc2cc(O)cc(C=Cc3ccc(O)cc3)c2)C(O)C(O)C1O` (configuration not stated) [Resveratrol 3-O-glucuronide], the LC retention time in data set [1] was 4.85 min; in data set [11], 11 min.
Turning to `O=S(=O)(O)Oc1cc(O)cc(C=Cc2ccc(O)cc2)c1` [Resveratrol 3-O-sulfate], the LC retention time in data set [1] is 5.89 min; in data set [11], 8.93 min.
The corresponding values for `O=C(O)C1OC(Oc2ccc(C=Cc3cc(O)cc(O)c3)cc2)C(O)C(O)C1O` (configuration not stated) [Resveratrol 4-O-glucuronide] are 4.64 min and 9.05 min.
Consider `CC(C)c1cc2c(c(O)c1O)C13CCCC(C)(C)C1C(OC3=O)C2O` (configuration not stated) [Rosmanol], for which, in data set [9], the LC retention time is 11.8 min.
The same measure, in the same setting: in the case of `COc1cc(O)c2c(c1)OC(c1ccc(O)cc1)CC2=O` (configuration not stated) [Sakuranetin] it was 12.1 min.
As to `O=c1oc2c(O)c(O)ccc2c2cc(O)c(O)cc12` [Urolithin  D], the LC retention time in [1] was 4.68 min; in [11], 8.24 min.
As to `O=C(O)C1OC(Oc2ccc3c(c2)oc(=O)c2ccccc23)C(O)C(O)C1O` (configuration not stated) [Urolithin B-3-O-glucuronide], the LC retention time was 5.23 min in data set [1] and 11.6 min in data set [11].
The corresponding values for `O=c1oc2cc(O)ccc2c2cc(O)c(O)cc12` [Urolithin C] are 5.11 min and 10.3 min.
As to `COc1cc(C(=O)O)ccc1OS(=O)(=O)O` [Vanillic acid-4-O-sulfate], the LC retention time is 3.13 min in data set [1], 3.82 min in [2] and 2 min in data set [3].
Take `COc1cc(O)c(CC=C(C)C)c(O)c1C(=O)C=Cc1ccc(O)cc1` [Xanthohumol]: in data set [9], the LC retention time was 15.4 min.
On to `O=c1c(O)c(-c2ccc(O)cc2)oc2cc(OC3OC(CO)C(O)C(O)C3O)cc(O)c12` (configuration not stated) [kaempferol-7-O-glucoside], for which the values for the LC retention time in data set [5] and in data set [9] were 38.3 min and 7.37 min, respectively.

(Values after the RepoRT retention time repository (doi:10.1016/j.foodchem.2021.129757).)
